According to the NIST ThermoML archive (doi:10.1016/j.jct.2006.09.012):
Values joined by “and” are separate entries in the source; they are usually repeats but may differ in a detail not shown here. Equal values may be shown once.

Settings: Gas, Buoyancy - hydrostatic balance with magnetic suspension - two sinkers

N#N [nitrogen]
Settings | mass density
340.01 K, 11962 kPa | 114.845 kg/m3 and 114.844 kg/m3 and 114.842 kg/m3
340.01 K, 15961 kPa | 150.241 kg/m3 and 150.238 kg/m3 and 150.239 kg/m3
340.01 K, 15962 kPa | 150.242 kg/m3 and 150.24 kg/m3
340.01 K, 20072 kPa | 184.447 kg/m3 [middle of 5 runs]
340.01 K, 20073 kPa | 184.453 kg/m3
340.01 K, 24069 kPa | 215.463 kg/m3
340.01 K, 24070 kPa | 215.467 kg/m3 and 215.465 kg/m3 and 215.466 kg/m3
340.01 K, 28607 kPa | 247.989 kg/m3 and 247.99 kg/m3
340.01 K, 28608 kPa | 247.996 kg/m3 and 247.999 kg/m3 and 247.993 kg/m3
340.01 K, 33718 kPa | 281.379 kg/m3
340.01 K, 33719 kPa | 281.38 kg/m3 and 281.384 kg/m3
340.01 K, 33720 kPa | 281.389 kg/m3 and 281.386 kg/m3
359.99 K, 5385.3 kPa | 49.7747 kg/m3
359.99 K, 5385.4 kPa | 49.7738 kg/m3 and 49.7746 kg/m3
359.99 K, 5385.5 kPa | 49.7747 kg/m3 and 49.7744 kg/m3
359.99 K, 11539 kPa | 104.182 kg/m3
359.99 K, 23337 kPa | 197.246 kg/m3
360 K, 11538 kPa | 104.181 kg/m3 and 104.18 kg/m3
360 K, 11539 kPa | 104.182 kg/m3 and 104.181 kg/m3
360 K, 23336 kPa | 197.238 kg/m3 and 197.239 kg/m3 and 197.241 kg/m3
360 K, 23337 kPa | 197.243 kg/m3
379.99 K, 5685.7 kPa | 49.5887 kg/m3 [middle of 4 runs]
379.99 K, 5685.8 kPa | 49.589 kg/m3 and 49.5891 kg/m3
379.99 K, 12228 kPa | 103.776 kg/m3 and 103.778 kg/m3
380 K, 12228 kPa | 103.775 kg/m3 and 103.776 kg/m3
380 K, 24868 kPa | 196.492 kg/m3 and 196.493 kg/m3 and 196.491 kg/m3
380 K, 24869 kPa | 196.497 kg/m3 and 196.496 kg/m3 and 196.492 kg/m3
399.97 K, 499.5 kPa | 4.2016 kg/m3 and 4.2015 kg/m3 and 4.2014 kg/m3
399.97 K, 999 kPa | 8.3914 kg/m3 and 8.3913 kg/m3 and 8.3912 kg/m3
399.97 K, 1998 kPa | 16.7314 kg/m3 and 16.7313 kg/m3 and 16.7315 kg/m3
399.97 K, 3996 kPa | 33.2413 kg/m3 and 33.241 kg/m3 and 33.2411 kg/m3
399.97 K, 5994.1 kPa | 49.4948 kg/m3 and 49.4949 kg/m3 and 49.4947 kg/m3
399.99 K, 5983.6 kPa | 49.4072 kg/m3 and 49.4075 kg/m3
399.99 K, 5983.7 kPa | 49.4089 kg/m3 and 49.4079 kg/m3
399.99 K, 5983.8 kPa | 49.4087 kg/m3 and 49.4092 kg/m3
399.99 K, 12911 kPa | 103.383 kg/m3
399.99 K, 12912 kPa | 103.387 kg/m3
400 K, 12911 kPa | 103.385 kg/m3 and 103.384 kg/m3 and 103.383 kg/m3
400 K, 12912 kPa | 103.388 kg/m3
400 K, 26381 kPa | 195.763 kg/m3 and 195.766 kg/m3
400 K, 26382 kPa | 195.77 kg/m3
400 K, 26383 kPa | 195.774 kg/m3
419.99 K, 6278.6 kPa | 49.2274 kg/m3 [middle of 5 runs]
419.99 K, 13587 kPa | 103.001 kg/m3 and 103.002 kg/m3
420 K, 13587 kPa | 103 kg/m3 and 103.001 kg/m3 and 103.002 kg/m3
420 K, 27876 kPa | 195.057 kg/m3 and 195.058 kg/m3 and 195.06 kg/m3
420 K, 27877 kPa | 195.065 kg/m3 and 195.064 kg/m3
420 K, 27878 kPa | 195.07 kg/m3
439.98 K, 499.5 kPa | 3.8187 kg/m3 [middle of 5 runs]
439.98 K, 999 kPa | 7.6237 kg/m3 and 7.6236 kg/m3 and 7.6238 kg/m3
439.98 K, 1998 kPa | 15.1913 kg/m3 and 15.1914 kg/m3
439.98 K, 3995.9 kPa | 30.1496 kg/m3 [middle of 4 runs]
439.98 K, 5993.9 kPa | 44.8532 kg/m3 [middle of 4 runs]
439.99 K, 6571 kPa | 49.0492 kg/m3
439.99 K, 6571.1 kPa | 49.0504 kg/m3 and 49.0497 kg/m3 and 49.05 kg/m3
440 K, 14255 kPa | 102.622 kg/m3 [middle of 6 runs]
440 K, 29348 kPa | 194.34 kg/m3 and 194.342 kg/m3 and 194.344 kg/m3
440 K, 29349 kPa | 194.345 kg/m3 and 194.347 kg/m3 and 194.348 kg/m3
459.99 K, 6861.3 kPa | 48.8758 kg/m3 and 48.8757 kg/m3
460 K, 6861.3 kPa | 48.8757 kg/m3 and 48.8759 kg/m3
460 K, 6861.4 kPa | 48.8764 kg/m3
460 K, 14917 kPa | 102.251 kg/m3 [middle of 5 runs]
460 K, 14918 kPa | 102.253 kg/m3
460 K, 30809 kPa | 193.675 kg/m3
460 K, 30810 kPa | 193.681 kg/m3 and 193.677 kg/m3 and 193.678 kg/m3
460 K, 30811 kPa | 193.683 kg/m3
460 K, 30812 kPa | 193.69 kg/m3
479.99 K, 7148.6 kPa | 48.7024 kg/m3
479.99 K, 7148.7 kPa | 48.7027 kg/m3
480 K, 499.5 kPa | 3.4995 kg/m3 [middle of 5 runs]
480 K, 999 kPa | 6.9854 kg/m3 [middle of 5 runs]
480 K, 1998 kPa | 13.9143 kg/m3 [middle of 5 runs]
480 K, 3996 kPa | 27.6012 kg/m3 and 27.6015 kg/m3 and 27.6009 kg/m3
480 K, 5994 kPa | 41.0449 kg/m3 and 41.045 kg/m3
480 K, 5994.1 kPa | 41.0449 kg/m3 and 41.0443 kg/m3 and 41.045 kg/m3
480 K, 7148.6 kPa | 48.7016 kg/m3 and 48.7015 kg/m3
480 K, 7148.7 kPa | 48.7027 kg/m3
480 K, 15572 kPa | 101.884 kg/m3 [middle of 5 runs]
480 K, 15573 kPa | 101.886 kg/m3
480 K, 32254 kPa | 193.025 kg/m3
480 K, 32255 kPa | 193.027 kg/m3 and 193.029 kg/m3
480 K, 32256 kPa | 193.032 kg/m3 and 193.035 kg/m3
500 K, 7433.7 kPa | 48.5307 kg/m3 and 48.5313 kg/m3
500 K, 7433.8 kPa | 48.531 kg/m3 and 48.5323 kg/m3 and 48.5317 kg/m3
500 K, 7433.9 kPa | 48.5314 kg/m3
500 K, 16220 kPa | 101.517 kg/m3 and 101.518 kg/m3 and 101.519 kg/m3
500 K, 16221 kPa | 101.519 kg/m3 and 101.521 kg/m3
500 K, 33681 kPa | 192.377 kg/m3
500 K, 33682 kPa | 192.38 kg/m3 and 192.382 kg/m3
500 K, 33683 kPa | 192.384 kg/m3
500 K, 33684 kPa | 192.389 kg/m3
500 K, 33686 kPa | 192.396 kg/m3
